Measured values from patent US5200419A, “Substituted tetrazoles and derivatives thereof acting at muscarinic receptors” (Warner-Lambert Company, priority 1990, dated 1993).

Key:
[1] = tested on: central muscarinic agonist site; test: Receptor [^3 H]Cis-methyldioxalane Assay (RCMD), rat cerebral cortex; format: binding
[2] = tested on: central muscarinic antagonist site; format: binding; conditions: rat cerebral cortex, [3H]quinuclidinyl benzilate
[3] = in vivo; cited from earlier work
[4] = aged humans and nonhuman primates with decreased cognition; cited from earlier work

c1nnnn1C1CN2CCC1CC2 (centres unmarked) [Example 1, 3-(1H-Tetrazol-1-yl)-1-azabicyclo[2.2.2]octane]
RCMD (% Inhibition at 0.1 μM) [1]: 0% | RQNB (% Inhibition at 1 μM) [2]: 7%

Nc1ccncc1N [3,4-diaminopyridine]
age-related cognitive deficits [3]: ameliorate age-related cognitive deficits

Cc1nnnn1C1CN2CCC1CC2 (centres unmarked) [Example 1a, 3-(5-Methyl-1H-tetrazol-1-yl)-1-azabicyclo[2.2.2]octane]
RCMD (% Inhibition at 0.1 μM) [1]: 8% | RQNB (% Inhibition at 1 μM) [2]: 19%

CNC(=O)Oc1ccc2c(c1)[C@]1(C)CCN(C)[C@@H]1N2C [physostigmine]
memory [4]: improved memory

CCc1nnnn1C1CN2CCC1CC2 (centres unmarked) [Example 1b, 3-(5-Ethyl-1H-tetrazol-1-yl)-1-azabicyclo[2.2.2]-octane]
RCMD (% Inhibition at 0.1 μM) [1]: 15% | RQNB (% Inhibition at 1 μM) [2]: 11%
